From ChEMBL document CHEMBL6109156, “Discovery of Dual PD-L1/HDAC3 Inhibitors for Tumor Immunotherapy” (J Med Chem, 2025)
One block for each compound: values may come before it. Calls of active or inactive are those of the source. The rule behind the calls is not given here.

Assays:
[1] = biological target: T1, Programmed cell death protein 1/Programmed cell death 1 ligand 1 (Homo sapiens) (UniProt Q15116+Q9NZQ7); test: (§1) Inhibition of PD-1/PD-L1 (unknown origin) interaction assessed as inhibition rate at 1 uM by HTRF assay relative to control; assay type: protein-complex assay
[2] = biological target: T1, Programmed cell death protein 1/Programmed cell death 1 ligand 1 (Homo sapiens); test: Inhibition of PD-1/PD-L1 (unknown origin) interaction assessed as inhibition rate at 0.1 uM by HTRF assay relative to control; assay type: protein-complex assay
Histone deacetylase 3 [3] = biological target: T2, Histone deacetylase 3 (Homo sapiens, UniProt O15379); test: Inhibition of human recombinant HDAC3 using Ac-Leu-Gly-Lys (Ac)-AMC as substrate at 1 uM preincubated for 10 mins followed by substrate addition and measured after 45 mins by TECAN microtiter plate reader analysis relative to control; conditions: time 55.0 min
Histone deacetylase 3 [4] = biological target: T2, Histone deacetylase 3; test: Inhibition of human recombinant HDAC3 using Ac-Leu-Gly-Lys (Ac)-AMC as substrate at 0.1 uM preincubated for 10 mins followed by substrate addition and measured after 45 mins by TECAN microtiter plate reader analysis relative to control; conditions: time 55.0 min
[5] = biological target: Programmed cell death protein 1/Programmed cell death 1 ligand 1 (Homo sapiens, UniProt Q9NZQ7); test: as §1; assay type: protein-complex assay
Histone deacetylase 3 [6] = biological target: T2, Histone deacetylase 3; test: Inhibition of human recombinant HDAC3 using Ac-Leu-Gly-Lys (Ac)-AMC as substrate preincubated for 10 mins followed by substrate addition and measured after 45 mins by TECAN microtiter plate reader analysis
Histone deacetylase 1 = Histone deacetylase 1 (Homo sapiens, UniProt Q13547); test: Inhibition of human recombinant HDAC1 using Ac-Leu-Gly-Lys (Ac)-AMC as substrate preincubated for 10 mins followed by substrate addition and measured after 45 mins by TECAN microtiter plate reader analysis
[7] = biological target: T3, Protein deacetylase HDAC6 (Homo sapiens, UniProt Q9UBN7); test: Inhibition of human recombinant HDAC6 using Ac-Leu-Gly-Lys (Ac)-AMC as substrate preincubated for 10 mins followed by substrate addition and measured after 45 mins by TECAN microtiter plate reader analysis
T3 sequence (Q9UBN7 whole entry): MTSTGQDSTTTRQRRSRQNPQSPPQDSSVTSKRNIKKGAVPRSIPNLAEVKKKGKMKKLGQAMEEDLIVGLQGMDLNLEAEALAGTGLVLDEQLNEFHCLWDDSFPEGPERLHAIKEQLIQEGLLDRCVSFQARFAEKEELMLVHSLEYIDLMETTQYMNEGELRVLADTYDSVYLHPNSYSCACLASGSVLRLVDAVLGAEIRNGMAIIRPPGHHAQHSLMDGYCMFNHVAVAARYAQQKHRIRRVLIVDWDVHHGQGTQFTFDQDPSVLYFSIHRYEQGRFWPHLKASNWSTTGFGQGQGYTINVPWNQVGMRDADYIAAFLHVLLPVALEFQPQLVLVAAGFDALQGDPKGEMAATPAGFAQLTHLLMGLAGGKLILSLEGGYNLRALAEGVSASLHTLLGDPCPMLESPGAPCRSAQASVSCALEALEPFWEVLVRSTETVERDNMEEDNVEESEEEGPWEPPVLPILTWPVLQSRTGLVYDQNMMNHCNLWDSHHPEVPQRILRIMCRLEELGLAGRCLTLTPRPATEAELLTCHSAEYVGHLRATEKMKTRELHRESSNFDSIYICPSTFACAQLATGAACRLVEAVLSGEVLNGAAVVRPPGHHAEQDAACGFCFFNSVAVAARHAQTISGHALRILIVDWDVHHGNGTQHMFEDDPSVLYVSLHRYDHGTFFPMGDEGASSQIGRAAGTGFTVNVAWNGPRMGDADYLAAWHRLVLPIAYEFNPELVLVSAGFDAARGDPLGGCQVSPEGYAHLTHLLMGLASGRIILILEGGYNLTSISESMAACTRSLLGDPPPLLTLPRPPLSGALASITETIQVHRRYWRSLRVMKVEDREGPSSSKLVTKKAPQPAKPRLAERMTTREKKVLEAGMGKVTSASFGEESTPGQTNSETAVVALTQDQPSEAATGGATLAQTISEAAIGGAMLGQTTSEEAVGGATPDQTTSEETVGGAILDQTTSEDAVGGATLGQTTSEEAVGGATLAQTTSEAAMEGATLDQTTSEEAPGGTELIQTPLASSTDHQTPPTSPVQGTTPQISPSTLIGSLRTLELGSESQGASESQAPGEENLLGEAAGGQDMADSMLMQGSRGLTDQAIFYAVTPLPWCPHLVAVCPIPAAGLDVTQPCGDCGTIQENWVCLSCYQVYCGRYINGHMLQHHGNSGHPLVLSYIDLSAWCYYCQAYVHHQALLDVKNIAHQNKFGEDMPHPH

Histone deacetylase 8 = biological target: T4, Histone deacetylase 8 (Homo sapiens, UniProt Q9BY41); test: Inhibition of human recombinant HDAC8 using Ac-Leu-Gly-Lys (Tfa)-AMC as substrate preincubated for 10 mins followed by substrate addition and measured after 45 mins by TECAN microtiter plate reader analysis
T4 sequence (Q9BY41 whole entry): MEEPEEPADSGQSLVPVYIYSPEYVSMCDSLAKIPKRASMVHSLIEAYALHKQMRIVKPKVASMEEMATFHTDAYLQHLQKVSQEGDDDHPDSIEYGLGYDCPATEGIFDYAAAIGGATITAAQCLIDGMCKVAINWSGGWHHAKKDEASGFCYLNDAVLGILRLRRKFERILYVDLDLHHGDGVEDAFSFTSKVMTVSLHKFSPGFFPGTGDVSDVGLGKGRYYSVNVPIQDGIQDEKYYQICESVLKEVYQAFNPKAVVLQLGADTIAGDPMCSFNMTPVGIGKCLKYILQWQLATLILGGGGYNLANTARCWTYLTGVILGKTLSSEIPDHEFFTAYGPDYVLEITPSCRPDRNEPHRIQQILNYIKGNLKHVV

B16-F10 = test: Antiproliferative activity against mouse B16-F10 cells assessed as cell growth inhibition incubated for 48 hrs by MTT assay; assay type: functional, cell-based; conditions: B16-F10, 48 h
A-375 = test: Antiproliferative activity against human A-375 cells assessed as cell growth inhibition incubated for 48 hrs by MTT assay; assay type: functional, cell-based; conditions: A-375, 48 h
HepG2 = test: Antiproliferative activity against human HepG2 cells assessed as cell growth inhibition incubated for 48 hrs by MTT assay; assay type: functional, cell-based; conditions: HepG2, 48 h
4T1 = test: Antiproliferative activity against mouse 4T1 cells assessed as cell growth inhibition incubated for 48 hrs by MTT assay; assay type: functional, cell-based; conditions: 4T1, 48 h
MDA-MB-231 = test: Antiproliferative activity against human MDA-MB-231 cells assessed as cell growth inhibition incubated for 48 hrs by MTT assay; assay type: functional, cell-based; conditions: MDA-MB-231, 48 h
HCT-116 = test: Antiproliferative activity against human HCT-116 cells assessed as cell growth inhibition incubated for 48 hrs by MTT assay; assay type: functional, cell-based; conditions: HCT-116, 48 h
[8] = biological target: T5, Histone deacetylase 3 (Mus musculus) (UniProt O88895); test: Inhibition of HDAC3 in mouse B16-F10 cells assessed as upregulation of Ac-H3 level at 3 uM incubated for 24 hrs by Western blotting analysis; assay type: cell-based
T5 sequence (whole entry): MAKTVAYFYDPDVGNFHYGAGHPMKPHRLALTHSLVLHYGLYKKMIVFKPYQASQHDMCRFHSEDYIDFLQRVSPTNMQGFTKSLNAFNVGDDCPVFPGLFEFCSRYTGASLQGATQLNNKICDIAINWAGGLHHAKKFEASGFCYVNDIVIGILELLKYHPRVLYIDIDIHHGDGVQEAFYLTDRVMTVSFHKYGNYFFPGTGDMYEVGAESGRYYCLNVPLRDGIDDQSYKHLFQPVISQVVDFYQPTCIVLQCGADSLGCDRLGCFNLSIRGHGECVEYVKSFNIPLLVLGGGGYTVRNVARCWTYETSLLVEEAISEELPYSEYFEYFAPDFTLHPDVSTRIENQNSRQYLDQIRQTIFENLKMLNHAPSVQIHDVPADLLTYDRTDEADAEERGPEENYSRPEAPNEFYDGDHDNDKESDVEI

Chain of Programmed cell death protein 1/Programmed cell death 1 ligand 1 (Q15116 whole entry): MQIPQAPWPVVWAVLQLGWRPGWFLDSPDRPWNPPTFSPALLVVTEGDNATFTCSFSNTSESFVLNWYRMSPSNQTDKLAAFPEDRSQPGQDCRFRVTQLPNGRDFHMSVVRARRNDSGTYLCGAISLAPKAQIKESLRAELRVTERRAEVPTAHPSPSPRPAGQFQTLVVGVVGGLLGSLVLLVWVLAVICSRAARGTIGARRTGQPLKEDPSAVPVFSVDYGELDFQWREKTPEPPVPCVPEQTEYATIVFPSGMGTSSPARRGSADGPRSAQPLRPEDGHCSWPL
Chain of Programmed cell death protein 1/Programmed cell death 1 ligand 1 (Q9NZQ7 whole entry): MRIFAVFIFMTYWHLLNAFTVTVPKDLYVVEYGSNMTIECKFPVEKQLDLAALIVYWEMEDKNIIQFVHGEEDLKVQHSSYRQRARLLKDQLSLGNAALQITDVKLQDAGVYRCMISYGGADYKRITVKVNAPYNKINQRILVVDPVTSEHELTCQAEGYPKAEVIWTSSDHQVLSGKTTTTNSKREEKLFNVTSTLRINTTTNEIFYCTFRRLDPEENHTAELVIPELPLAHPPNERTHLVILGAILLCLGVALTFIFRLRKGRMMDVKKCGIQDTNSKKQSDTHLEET
T2 sequence (O15379 whole entry): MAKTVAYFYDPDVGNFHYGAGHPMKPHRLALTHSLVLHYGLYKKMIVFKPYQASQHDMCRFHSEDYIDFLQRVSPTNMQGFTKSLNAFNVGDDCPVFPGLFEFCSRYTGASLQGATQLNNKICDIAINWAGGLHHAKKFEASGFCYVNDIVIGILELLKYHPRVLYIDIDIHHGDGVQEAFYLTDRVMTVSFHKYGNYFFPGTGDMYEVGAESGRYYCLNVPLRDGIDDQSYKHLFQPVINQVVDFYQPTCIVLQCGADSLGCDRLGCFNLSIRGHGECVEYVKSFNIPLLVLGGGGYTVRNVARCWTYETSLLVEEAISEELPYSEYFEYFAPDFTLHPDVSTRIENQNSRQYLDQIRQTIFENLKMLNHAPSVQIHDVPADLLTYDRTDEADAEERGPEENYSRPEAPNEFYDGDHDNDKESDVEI
Chain of Histone deacetylase 1 (Q13547 whole entry): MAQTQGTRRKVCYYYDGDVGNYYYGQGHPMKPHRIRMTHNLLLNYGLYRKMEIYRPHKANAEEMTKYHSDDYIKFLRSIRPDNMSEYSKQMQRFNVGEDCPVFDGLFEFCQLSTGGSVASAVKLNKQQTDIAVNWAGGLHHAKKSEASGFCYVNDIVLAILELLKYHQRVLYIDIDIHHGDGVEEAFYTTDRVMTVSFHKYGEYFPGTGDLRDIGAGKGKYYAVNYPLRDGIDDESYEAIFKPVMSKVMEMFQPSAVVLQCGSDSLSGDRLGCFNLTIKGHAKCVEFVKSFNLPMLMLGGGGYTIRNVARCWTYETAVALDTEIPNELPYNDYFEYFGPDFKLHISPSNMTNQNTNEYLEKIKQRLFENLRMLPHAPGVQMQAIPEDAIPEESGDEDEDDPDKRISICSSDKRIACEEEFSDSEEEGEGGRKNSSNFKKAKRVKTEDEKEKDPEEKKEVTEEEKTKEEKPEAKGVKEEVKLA

inhibition (Histone deacetylase 3 [3]): 67.2%
inhibition (Histone deacetylase 3 [4]): 36%
Compound: CCCNNC(=O)CCNCc1ccc(-c2cccc(-c3ccccc3)c2C)nc1OC
inhibition [1]: 92.4%
inhibition [2]: 58.8%

inhibition (Histone deacetylase 3 [3]): < 50%
Compound: CCCNNC(=O)CC1CCN(Cc2ccc(-c3cccc(-c4ccccc4)c3C)nc2OC)CC1
inhibition [1]: 89.4%
inhibition [2]: 25.7%

inhibition (Histone deacetylase 3 [3]): 79.7%
inhibition (Histone deacetylase 3 [4]): 40.2%
IC50 (Histone deacetylase 3 [6]): 0.168 µM
IC50 (Histone deacetylase 1): 2.15 µM
IC50 [7]: > 10 µM
IC50 (Histone deacetylase 8): > 10 µM
IC50 (B16-F10): 6.93 µM
IC50 (A-375): 10.2 µM
IC50 (HepG2): 7.01 µM
IC50 (4T1): 7.48 µM
IC50 (MDA-MB-231): 13.9 µM
IC50 (HCT-116): 14.7 µM
inhibition [8]: Active
Compound: CCCNNC(=O)c1cnc(NCCNCc2ccc(-c3cccc(-c4ccccc4)c3C)nc2OC)cn1
inhibition [1]: 94.4%
IC50 [5]: 0.0649 µM
inhibition [2]: 46%

inhibition (Histone deacetylase 3 [3]): 82%
inhibition (Histone deacetylase 3 [4]): 53.6%
IC50 (Histone deacetylase 3 [6]): 0.106 µM
IC50 (Histone deacetylase 1): 0.535 µM
IC50 [7]: > 10 µM
IC50 (Histone deacetylase 8): > 10 µM
Compound: CCCNNC(=O)CCCCCNCc1ccc(-c2cccc(-c3ccccc3)c2C)nc1OC
inhibition [1]: 92.7%
IC50 [5]: 0.213 µM
inhibition [2]: 37.3%

inhibition (Histone deacetylase 3 [3]): 71.3%
inhibition (Histone deacetylase 3 [4]): 33.2%
Compound: CCCNNC(=O)C1CCN(Cc2ccc(-c3cccc(-c4ccccc4)c3C)nc2OC)CC1
inhibition [1]: 82.7%
inhibition [2]: 21.7%

inhibition (Histone deacetylase 3 [3]): 69.5%
inhibition (Histone deacetylase 3 [4]): 38.5%
Compound: CCCNNC(=O)c1ccc(NCCNCc2ccc(-c3cccc(-c4ccccc4)c3C)nc2OC)nn1
inhibition [1]: 78.5%
inhibition [2]: 9.3%

inhibition (Histone deacetylase 3 [3]): 55.8%
Compound: CCCNNC(=O)CCCCCCNCc1ccc(-c2cccc(-c3ccccc3)c2C)nc1OC
inhibition [1]: 89.8%
inhibition [2]: 12.5%

inhibition (Histone deacetylase 3 [3]): < 50%
Compound: CCCNNC(=O)c1cnc(N2CCC(NCc3ccc(-c4cccc(-c5ccccc5)c4C)nc3OC)CC2)nc1
inhibition [1]: 71.7%
inhibition [2]: 3.6%

inhibition (Histone deacetylase 3 [3]): < 50%
Compound: CCCNNC(=O)c1cnc(NCCCNCc2ccc(-c3cccc(-c4ccccc4)c3C)nc2OC)cn1
inhibition [1]: 80.9%
inhibition [2]: 18.8%

inhibition (Histone deacetylase 3 [3]): < 50%
Compound: CCCNNC(=O)c1cnc(NCCNCc2ccc(-c3cccc(-c4ccccc4)c3C)nc2OC)nc1
inhibition [1]: 95.1%
inhibition [2]: 44.5%

inhibition (Histone deacetylase 3 [3]): 79.4%
inhibition (Histone deacetylase 3 [4]): 41.9%
IC50 (Histone deacetylase 3 [6]): 0.111 µM
IC50 (Histone deacetylase 1): 0.459 µM
IC50 [7]: > 10 µM
IC50 (Histone deacetylase 8): > 10 µM
Compound: CCCNNC(=O)CCCCNCc1ccc(-c2cccc(-c3ccccc3)c2C)nc1OC
inhibition [1]: 92.5%
IC50 [5]: 0.0716 µM
inhibition [2]: 54.4%

Continued, compound first:

Compound: CCCNNC(=O)CC1CCCN(Cc2ccc(-c3cccc(-c4ccccc4)c3C)nc2OC)C1 (stereo not given)
inhibition [1]: 59.1%
inhibition [2]: 4.75%

Compound: CCCNNC(=O)c1cnc(N2CCC(NCc3ccc(-c4cccc(-c5ccccc5)c4C)nc3OC)CC2)cn1
inhibition [1]: 62.6%
inhibition [2]: 7.82%

Compound: CCCNNC(=O)c1cnc(N2CC(NCc3ccc(-c4cccc(-c5ccccc5)c4C)nc3OC)C2)nc1
inhibition [1]: 68.2%
inhibition [2]: 17.8%

Compound: CCCNNC(=O)c1cnc(N(C)CCN(C)Cc2ccc(-c3cccc(-c4ccccc4)c3C)nc2OC)nc1
inhibition [1]: 28.8%
inhibition [2]: 5.96%

Compound: CCCNNC(=O)c1ccc(NCc2ccc(-c3cccc(-c4ccccc4)c3C)nc2OC)cc1
inhibition [1]: 7.61%
inhibition [2]: 1.83%

Compound: CCCNNC(=O)CNCc1ccc(-c2cccc(-c3ccccc3)c2C)nc1OC
inhibition [1]: 68.9%
inhibition [2]: 19.5%

Compound: CCCNNC(=O)c1ccc(C(=O)NCCNCc2ccc(-c3cccc(-c4ccccc4)c3C)nc2OC)cc1
inhibition [1]: 88.1%
inhibition [2]: 23.4%
inhibition (Histone deacetylase 3 [3]): 74.3%
inhibition (Histone deacetylase 3 [4]): 46.8%

Compound: CCCNNC(=O)c1ccc(CNCc2ccc(-c3cccc(-c4ccccc4)c3C)nc2OC)cc1
inhibition [1]: 42.4%
inhibition [2]: 11.3%

Compound: CCCNNC(=O)c1cnc(N2CC(NCc3ccc(-c4cccc(-c5ccccc5)c4C)nc3OC)C2)cn1
inhibition [1]: 54.5%
inhibition [2]: 13.5%

Compound: CCCNNC(=O)c1ccc(NCc2ccc(-c3cccc(-c4ccccc4)c3C)nc2OC)c(C)c1
inhibition [1]: 4.65%
inhibition [2]: -0.25%

Compound: CCCNNC(=O)c1ccc(NCCNCc2ccc(-c3cccc(-c4ccccc4)c3C)nc2OC)cc1
inhibition [1]: 11.1%
inhibition [2]: 4.12%
